For 1 compound, Ki results are on record in patent US6197753A, “Pyranoside derivatives” (Boehringer Ingelheim KG, priority 1999, dated 2001).

Usually pKi stands for the negative decadic logarithm of the Ki, by convention in mol/L.

This experiment concerns the target LTB4 -receptor (Homo sapiens, UniProt Q15722). In words: receptor binding test. Here is the method:
The compounds according to the invention are potent LTB4 -antagonists.In particular the compound of Example 1 is obtained in vivo as a metabolite of an LTB4 -antagonistic compound and in the receptor binding test it has a Ki -value of 1.0 nM.
The activity ratios may be investigated pharmacologically and biochemically using tests such as those described in WO 93/16036, pp. 15 to 17 --the contents of which are referred to herein.

pKi: −log10 of the molar value.

Chain of LTB4 -receptor (Q15722 whole entry): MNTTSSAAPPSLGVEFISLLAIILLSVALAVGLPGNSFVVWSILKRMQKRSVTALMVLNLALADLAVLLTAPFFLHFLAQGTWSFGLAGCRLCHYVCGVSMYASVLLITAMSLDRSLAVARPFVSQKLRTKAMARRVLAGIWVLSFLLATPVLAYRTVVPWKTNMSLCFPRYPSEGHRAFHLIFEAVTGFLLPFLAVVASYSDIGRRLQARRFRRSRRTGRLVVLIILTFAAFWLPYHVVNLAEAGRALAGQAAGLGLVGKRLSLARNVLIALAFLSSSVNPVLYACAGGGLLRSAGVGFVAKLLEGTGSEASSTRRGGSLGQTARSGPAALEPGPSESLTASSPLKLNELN

The compound `CC(C)(c1ccc(OCc2cccc(COc3ccc(C(=N)N)cc3)c2)cc1)c1ccc(O[C@@H]2O[C@H](C(=O)O)[C@@H](O)[C@H](O)[C@H]2O)cc1` [Example 1, 4-[[3-[[4-[1-(4-hydroxyphenyl)-1-methylethyl]phenoxy]methyl]phenyl]methoxy]-benzenecarboximidamide-O-gluctironide] showed a negative-log Ki (pKi) of 9.00.
